Measurements published in US20140378460A1, “COMPOSITIONS AND METHODS FOR TREATING NEURODEGENERATIVE DISEASE” (COGNITION THERAPEUTICS, INC., priority 2011, published 2014).
pEC50, pIC50, pKi: −log10 of the molar value. Where two headings read alike, the source gives them in different places.

Legend:
Sigma-2 receptors = conditions: cited from earlier work; for pKi: Table 11E, clinical compounds, second figure of S1/S2, read-out: Sigma Affinity (S2)
VAChT = VAChT (Homo sapiens, UniProt Q16572); conditions: cited from earlier work
muscarinic M1, 2, D2 = conditions: cited from earlier work
Sigma-1 receptors [1] = conditions: cited from earlier work; for pKi: Table 11E, clinical compounds, first figure of S1/S2, read-out: Sigma Affinity (S1)
alpha1 AR, 5-HT1a/2, H1 = conditions: cited from earlier work
Adrenergic transporter = Adrenergic transporter (Homo sapiens, UniProt P23975); conditions: cited from earlier work
Dopamine transporter = Dopamine transporter (Homo sapiens, UniProt Q01959); conditions: cited from earlier work
serotonin transporter = serotonin transporter (Homo sapiens, UniProt P31645); conditions: cited from earlier work
[2] = system: Abeta oligomer-induced membrane trafficking deficits in primary hippocampal neurons; test: Membrane trafficking/exocytosis (MTT) assay; format: cell-based, rat; conditions: for pEC50: known prior art compounds, read-out: Inhibition Abeta oligomer-induced Membrane Trafficking EC50
Procedure: The methods used to generate the results were as follows in the Membrane Trafficking/Exocytosis (MTT) assay.
Primary hippocampal neurons from E18 Sprague-Dawley rat embryos were plated at optimized concentrations in 384 well plates in NB media (Invitrogen). Neurons were maintained in cultures for 3 weeks, with twice weekly feeding of NB media with N2 supplement (Invitrogen).
A test compound was added to cells at concentrations ranging from 100 uM to 0.001 nM followed by addition of vehicle or Abeta oligomer preparations (3 μM total Abeta protein concentration), and incubated for 1 to 24 hr at 37° C. in 5% CO2. MTT reagent (3-(4,5-dimethylthizaol-2-yl)-2,5diphenyl tetrazolium bromide) (Roche Molecular Biochemicals) was reconstituted in phosphate buffered saline to 5 mg/mL. 10 μl, of MTT labeling reagent is added to each well and incubated at 37° C. for 1 h, then imaged. Exocytosis was assessed by automated microscopy and image processing to quantify the amount of endocytosed and exocytosed formazan.
Each assay plate was formatted so that compounds are tested with and without Abeta oligomer on each plate.

Sigma-1 receptors [3] = target: T1, Sigma-1 receptors (UniProt Q60492); conditions: cited from earlier work
T1 construct: other: known prior art compounds, published studies

5-HT2A, B, C = conditions: cited from earlier work
alpha 1A, 1B = conditions: cited from earlier work
NMDAR2A = NMDAR2A (Homo sapiens, UniProt Q12879); conditions: cited from earlier work
PCP = conditions: cited from earlier work
NMDAR2B = NMDAR2B (Homo sapiens, UniProt Q13224); conditions: cited from earlier work
sigma-2 receptor [4] = target: T2, sigma-2 receptor (Rattus norvegicus, UniProt Q5U3Y7); set-up: other: known prior art compounds, published studies; conditions: read-out: S2 binding Ki; Table 11C; cited from earlier work
T2 sequence (Q5U3Y7 1-176): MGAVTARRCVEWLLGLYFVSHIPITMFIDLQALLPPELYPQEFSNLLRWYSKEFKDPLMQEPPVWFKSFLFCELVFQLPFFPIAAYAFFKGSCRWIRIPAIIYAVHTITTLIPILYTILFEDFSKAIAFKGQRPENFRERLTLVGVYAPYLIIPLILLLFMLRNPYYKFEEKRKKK

neuronal cultures = test: Neuronal nuclear intensity / morphology; conditions: 24 hours
D2 = D2 (Homo sapiens, UniProt P14416); conditions: cited from earlier work
[5] = system: SKOV-3 human ovarian cancer cell line; test: MTS tumor cell viability assay; format: cell-based; conditions: by EC50 relative to siramesine
Procedure: The cytotoxicity of compounds shown below was determined using the CellTiter96 Aqueous One Solution Assay (Promega, Madison, Wis.). […] The plate was read at 490 nm in a Victor3 plate reader (PerkinElmer Life and Analytical Sciences, Shelton, Conn.). The EC^50 value, defined as the concentration of the sigma ligand required to inhibit cell viability by 50% relative to untreated cells, was determined from the dose response curve for each cell line.

[6] = system: caspase-3 in SKOV-3 human ovarian cancer cells; test: Caspase-3 activity in tumor cells; format: cell-based
sigma-2 receptor [7] = conditions: 1 μM each; 18.4 nM [3H]-RHM-1
[8] = system: caspase-3 in neuronal cultures; test: Caspase-3 activity in neurons; format: cell-based
[9] = Rattus norvegicus, Hippocampal neuron, Table 11C

Chain of VAChT (Q16572 whole entry, species assumed): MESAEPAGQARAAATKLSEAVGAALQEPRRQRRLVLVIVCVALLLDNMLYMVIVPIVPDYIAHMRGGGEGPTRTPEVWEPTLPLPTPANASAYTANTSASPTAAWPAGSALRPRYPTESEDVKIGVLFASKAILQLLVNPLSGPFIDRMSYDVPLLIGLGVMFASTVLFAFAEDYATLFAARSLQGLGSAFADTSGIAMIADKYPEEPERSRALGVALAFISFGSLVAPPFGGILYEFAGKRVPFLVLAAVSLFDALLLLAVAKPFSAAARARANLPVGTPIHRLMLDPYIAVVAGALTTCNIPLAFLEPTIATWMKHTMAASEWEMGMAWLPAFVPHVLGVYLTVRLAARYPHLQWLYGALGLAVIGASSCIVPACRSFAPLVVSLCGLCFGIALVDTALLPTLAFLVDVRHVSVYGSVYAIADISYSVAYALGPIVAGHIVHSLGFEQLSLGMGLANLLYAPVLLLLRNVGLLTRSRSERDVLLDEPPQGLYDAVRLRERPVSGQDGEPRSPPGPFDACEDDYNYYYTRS
Chain of NMDAR2B (Q13224 27-1484, species assumed, other chains not shown): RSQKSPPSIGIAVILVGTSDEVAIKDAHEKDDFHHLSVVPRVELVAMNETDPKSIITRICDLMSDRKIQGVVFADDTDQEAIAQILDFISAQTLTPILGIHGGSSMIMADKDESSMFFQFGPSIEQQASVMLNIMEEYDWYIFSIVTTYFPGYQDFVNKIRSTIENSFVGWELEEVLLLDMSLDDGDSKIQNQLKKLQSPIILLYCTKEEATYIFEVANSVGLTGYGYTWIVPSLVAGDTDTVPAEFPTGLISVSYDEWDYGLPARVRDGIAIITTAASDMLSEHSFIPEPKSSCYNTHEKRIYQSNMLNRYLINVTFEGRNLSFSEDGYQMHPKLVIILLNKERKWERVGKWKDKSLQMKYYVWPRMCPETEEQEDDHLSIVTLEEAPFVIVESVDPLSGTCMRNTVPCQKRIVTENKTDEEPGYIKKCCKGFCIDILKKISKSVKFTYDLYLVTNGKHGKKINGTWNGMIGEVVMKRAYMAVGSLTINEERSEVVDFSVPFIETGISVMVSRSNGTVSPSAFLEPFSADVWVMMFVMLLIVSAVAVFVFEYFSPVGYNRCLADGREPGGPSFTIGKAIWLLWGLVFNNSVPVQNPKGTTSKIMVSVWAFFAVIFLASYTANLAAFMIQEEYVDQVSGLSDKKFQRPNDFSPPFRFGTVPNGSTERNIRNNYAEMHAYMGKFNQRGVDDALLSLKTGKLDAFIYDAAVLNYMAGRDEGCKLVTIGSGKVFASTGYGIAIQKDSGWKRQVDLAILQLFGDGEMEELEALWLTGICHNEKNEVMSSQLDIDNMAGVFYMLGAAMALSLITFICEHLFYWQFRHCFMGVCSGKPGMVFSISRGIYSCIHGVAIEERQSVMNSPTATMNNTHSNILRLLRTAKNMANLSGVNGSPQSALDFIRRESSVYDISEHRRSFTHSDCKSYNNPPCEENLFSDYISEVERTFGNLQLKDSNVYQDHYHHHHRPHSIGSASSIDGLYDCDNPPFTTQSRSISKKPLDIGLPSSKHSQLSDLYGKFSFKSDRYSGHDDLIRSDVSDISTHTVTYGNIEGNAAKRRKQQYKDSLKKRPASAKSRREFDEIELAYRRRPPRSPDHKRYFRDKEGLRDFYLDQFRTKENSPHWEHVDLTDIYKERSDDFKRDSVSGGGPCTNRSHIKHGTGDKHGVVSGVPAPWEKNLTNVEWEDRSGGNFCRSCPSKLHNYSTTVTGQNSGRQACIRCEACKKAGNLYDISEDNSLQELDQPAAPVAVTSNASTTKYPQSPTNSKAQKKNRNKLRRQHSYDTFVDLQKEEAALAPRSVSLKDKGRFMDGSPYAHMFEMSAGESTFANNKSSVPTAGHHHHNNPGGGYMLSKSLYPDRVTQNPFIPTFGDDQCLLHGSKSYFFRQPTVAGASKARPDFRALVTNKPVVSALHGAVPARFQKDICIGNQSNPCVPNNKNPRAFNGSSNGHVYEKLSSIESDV
Chain of serotonin transporter (P31645 whole entry): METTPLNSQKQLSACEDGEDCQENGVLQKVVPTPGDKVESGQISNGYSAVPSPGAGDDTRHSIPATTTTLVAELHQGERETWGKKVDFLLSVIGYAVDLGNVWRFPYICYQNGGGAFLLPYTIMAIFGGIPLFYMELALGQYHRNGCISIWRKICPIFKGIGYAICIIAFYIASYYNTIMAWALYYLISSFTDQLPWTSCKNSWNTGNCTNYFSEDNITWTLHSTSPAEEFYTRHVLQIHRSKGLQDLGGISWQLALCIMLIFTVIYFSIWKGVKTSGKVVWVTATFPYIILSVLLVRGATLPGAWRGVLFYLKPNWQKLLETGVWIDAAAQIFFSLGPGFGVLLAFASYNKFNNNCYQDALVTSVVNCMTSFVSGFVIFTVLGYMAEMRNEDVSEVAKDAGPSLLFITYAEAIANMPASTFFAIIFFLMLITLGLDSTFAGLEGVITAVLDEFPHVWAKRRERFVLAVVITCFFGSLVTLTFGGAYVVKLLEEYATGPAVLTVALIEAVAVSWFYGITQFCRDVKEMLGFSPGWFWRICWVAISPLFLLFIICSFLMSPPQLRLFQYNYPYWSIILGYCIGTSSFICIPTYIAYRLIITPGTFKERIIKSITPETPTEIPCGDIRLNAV
Chain of Dopamine transporter (Q01959 whole entry): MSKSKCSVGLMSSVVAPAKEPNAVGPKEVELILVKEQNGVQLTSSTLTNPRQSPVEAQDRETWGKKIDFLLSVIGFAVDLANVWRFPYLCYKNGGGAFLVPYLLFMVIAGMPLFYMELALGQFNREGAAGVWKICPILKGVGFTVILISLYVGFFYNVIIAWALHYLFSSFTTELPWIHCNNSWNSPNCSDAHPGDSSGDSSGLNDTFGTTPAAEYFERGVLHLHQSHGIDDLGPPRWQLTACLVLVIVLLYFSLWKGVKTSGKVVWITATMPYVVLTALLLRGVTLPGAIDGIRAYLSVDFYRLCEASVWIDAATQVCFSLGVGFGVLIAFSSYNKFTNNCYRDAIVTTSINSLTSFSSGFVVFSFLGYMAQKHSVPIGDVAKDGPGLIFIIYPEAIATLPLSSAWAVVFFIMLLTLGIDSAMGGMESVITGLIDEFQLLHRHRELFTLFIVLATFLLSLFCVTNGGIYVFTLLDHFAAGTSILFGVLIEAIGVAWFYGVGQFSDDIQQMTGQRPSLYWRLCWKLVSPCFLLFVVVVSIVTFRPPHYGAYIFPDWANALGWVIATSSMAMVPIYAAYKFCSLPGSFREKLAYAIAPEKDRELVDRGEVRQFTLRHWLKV
Chain of D2 (P14416 whole entry): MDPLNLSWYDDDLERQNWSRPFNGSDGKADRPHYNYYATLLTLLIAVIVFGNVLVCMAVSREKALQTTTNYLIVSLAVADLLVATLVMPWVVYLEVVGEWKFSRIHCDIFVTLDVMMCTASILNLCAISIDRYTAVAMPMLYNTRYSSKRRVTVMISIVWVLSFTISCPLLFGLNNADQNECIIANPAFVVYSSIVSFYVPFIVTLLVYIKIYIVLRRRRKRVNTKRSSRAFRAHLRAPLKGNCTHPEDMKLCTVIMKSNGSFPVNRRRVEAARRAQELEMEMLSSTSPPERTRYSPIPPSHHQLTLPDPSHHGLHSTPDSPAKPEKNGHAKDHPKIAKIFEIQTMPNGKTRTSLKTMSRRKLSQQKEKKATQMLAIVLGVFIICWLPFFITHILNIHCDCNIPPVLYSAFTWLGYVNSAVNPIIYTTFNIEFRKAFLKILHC
Chain of Adrenergic transporter (P23975 whole entry): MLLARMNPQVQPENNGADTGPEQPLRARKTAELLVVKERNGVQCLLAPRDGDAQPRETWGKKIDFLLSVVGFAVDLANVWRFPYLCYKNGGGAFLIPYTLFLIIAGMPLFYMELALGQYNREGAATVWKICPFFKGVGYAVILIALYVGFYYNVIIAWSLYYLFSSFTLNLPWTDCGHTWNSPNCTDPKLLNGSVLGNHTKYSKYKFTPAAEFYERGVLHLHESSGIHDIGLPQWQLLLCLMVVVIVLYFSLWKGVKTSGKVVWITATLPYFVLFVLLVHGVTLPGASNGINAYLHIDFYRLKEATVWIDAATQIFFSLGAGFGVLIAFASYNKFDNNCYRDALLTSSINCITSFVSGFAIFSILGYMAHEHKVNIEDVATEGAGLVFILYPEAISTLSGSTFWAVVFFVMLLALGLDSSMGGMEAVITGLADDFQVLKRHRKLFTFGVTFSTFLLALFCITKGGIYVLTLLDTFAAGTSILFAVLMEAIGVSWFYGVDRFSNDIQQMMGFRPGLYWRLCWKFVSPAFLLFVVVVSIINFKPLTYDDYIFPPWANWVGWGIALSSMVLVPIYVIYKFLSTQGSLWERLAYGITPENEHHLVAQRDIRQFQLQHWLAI

SMILES: COc1ccc(CCN2CCN(CCCc3ccccc3)CC2)cc1OC.Cl.Cl [Cutamesine, Cutamesine dihydrochloride]
- pKi (Sigma-2 receptors): < 5.74
- Other Targets: VAChT (VAChT): VAChT(50 nM),
- Other Targets: muscarinic M1, 2, D2 (muscarinic M1, 2, D2): D2 (2 uM), alpha1
- pKi (Sigma-1 receptors [1]): 7.77
- Other Targets: alpha1 AR, 5-HT1a/2, H1 (alpha1 AR, 5-HT1a/2, H1): (2 uM)

SMILES: COCCCC/C(=N\OCCN)c1ccc(C(F)(F)F)cc1 [Fluvoxamine, fluvoxamine]
- pKi (Sigma-2 receptors): 6.15
- Other Targets: Adrenergic transporter (Adrenergic transporter): transporter (299 nM
- Other Targets: Dopamine transporter (Dopamine transporter): transporter (1.5 nM
- Other Targets: serotonin transporter (serotonin transporter): nM), Serotonin (12
- pEC50 [2, 9]: 5.60
- pIC50 ([2]; Rattus norvegicus, Hippocampal neuron, Table 11D, read-out: Membrane trafficking IC50): 5.60
- Functional Neuronal Phenotype ([2]; Table 11C): Antagonist
- Functional Neuronal Phenotype ([2]; Table 11D): Antagonist
- Sigma 1 (Type of Activity) (Sigma-1 receptors [1]; known prior art compounds): (agonist)
- pKi (Sigma-1 receptors [3]; Table 11C, read-out: S1 binding Ki): 7.89
- pKi (Sigma-1 receptors [3]; Table 11D, read-out: Sigma-1 Receptor Ki): 7.89
- pKi (Sigma-1 receptors [3]; known prior art compounds, published studies, read-out: Sigma 1 Binding Ki): 7.89

SMILES: OCCN1CCN(CCCN2c3ccccc3C=Cc3ccccc32)CC1 [Opipramol]
- pKi (Sigma-2 receptors): 7.25
- Other Targets: 5-HT2A, B, C (5-HT2A, B, C): 5-HT2A, B, C (120 nM
- pKi (Sigma-1 receptors [1]): 8.15
- Other Targets: alpha 1A, 1B (alpha 1A, 1B): 1A, 1B(200 nM)

SMILES: CC(C)=CCN1CCC2(C)c3cc(O)ccc3CC1C2C (centres unmarked) [Pentazocine, pentazocine]
- pKi (Sigma-2 receptors): 5.30
- Other Targets: 2A (NMDAR2A) (NMDAR2A): uM), 2A (2.7 uM),
- EC50 ([2]; Rattus norvegicus, Hippocampal neuron, read-out: Inhibition Abeta oligomer-induced Membrane Trafficking EC50 (uM)): 7.6 µM
- Functional Neuronal Phenotype ([2]; Table 11C): Antagonist
- Other Targets: PCP (PCP): PCP (2.9 uM)
- Other Targets: NMDAR2B (NMDAR2B): NMDAR2B (2.5 uM
- pKi (sigma-2 receptor [4]): < 5.30

SMILES: Fc1ccc(-n2cc(CCCCN3CCC4(CC3)OCc3ccccc34)c3ccccc32)cc1 [siramesine]
- Sigma 2 type of activity (Sigma-2 receptors; in brackets after the Ki): agonist
- Nuclear morphology / nuclear intensity in neurons (neuronal cultures): caused significant abnormal nuclear morphology
- Other Targets: D2 (D2): D2 (800 nM), alpha
- Action [5]: Full agonist
- Effect on Abeta oligomer trafficking deficits over the concentrations tested [2]: blocks Abeta oligomer trafficking deficits at low concentrations, but causes cellular toxicity at high concentrations
- pEC50 [2, 9]: 5.89
- Functional Neuronal Phenotype ([2]; Table 11C): Agonist
- Caspase-3 activity induced in tumor cells [6]: induced caspase-3 activity
- pKi (Sigma-1 receptors [3]; read-out: S1 binding Ki, Table 11C): 7.72
- pKi (Sigma-1 receptors [3]; read-out: Sigma 1 Binding Ki, known prior art compounds, published studies): 7.72
- Displacement of [3H]-RHM-1 (sigma-2 receptor [7]): partially displace
- Caspase-3 activity induced in neurons [8]: induced
- Other Targets: alpha 1A, 1B (alpha 1A, 1B): 1A, 1B (300 nM)
